Assays:
[1] = tested on: HMPV clinical isolate A2 strain TN 94-49; experiment: HMPV antiviral assay, Method 1 (LLC-MK2 cells, ATP-Lite); format: cell-based; conditions: human metapneumovirus, hMPV A2 TN/94-49, LLC-MK2 cells
How it was run: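 LLC-MK2 cells (5,000/well) infected in suspension with HMPV A2 TN 94-49 at MOI 0.005 in serum-free OptiMEM with 2 μg/mL final TPCK-trypsin, compounds in duplicate from 2 μM top, 2.5-fold, 10 points. After 7 days at 37° C, cell health by ATP-Lite luminescence normalised to virus and cell controls; EC50 from four-parameter fit.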

[2] = tested on: HMPV clinical isolate A2 strain TN 94-49; experiment: HMPV antiviral assay, Method 2 (LLC-MK2 cells with CP-100-356, ATP-Lite); format: cell-based; conditions: human metapneumovirus; hMPV A2 TN/94-49, LLC-MK2 cells with CP-100-356, Method 2
How it was run: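 LLC-MK2 rhesus kidney cells (5,000/well) infected in suspension with HMPV A2 TN 94-49 at MOI 0.16, in serum-free medium with final 2 μg/mL TPCK-trypsin and 2 μM CP-100-356. Compounds tested in duplicate from 200 nM, 2.5-fold, 10 points; 7 days at 37 °C. Cell health by ATP-Lite luminescence; EC50 by four-parameter fit.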

| Compound | EC50 [1] [nM] | EC50 [2] [nM] |
| --- | --- | --- |
| CCc1cc(-c2nc([C@@](O)(CNC(=O)c3cc(OC)c4nn(C5CC5)cc4c3)C3CC3)cc3c2OC[C@]3(C)C(N)=O)ccc1F [Example 71] | > 500 | > 200 |
| COc1cc(C(=O)NC[C@@](O)(c2ccc(C(F)(F)F)cc2)c2cc3c(c(-c4cc(Cl)c(F)cc4F)n2)OC[C@]3(C)C(N)=O)cc2cn(C3CC3)nc12 [Example 130] | > 500 | > 200 |
| COc1cc(C(=O)NC[C@@](O)(c2ccccc2)c2cc3c(c(-c4cc(Cl)ccc4F)n2)OC[C@]3(C)C(N)=O)cc2cn(C(F)F)nc12 [Example 145] | < 500 | < 200 |
| COc1cc(C(=O)NC[C@@](O)(c2ccccc2)c2cc3c(c(-c4cc(Cl)ccc4F)n2)OC[C@]3(C)C(N)=O)cc2cc(C3CC3)nn12 [Example 146] | < 500 | < 200 |
| COc1cc(C(=O)NC[C@@](O)(c2ccccc2)c2cc3c(c(-c4cc(C(F)(F)F)ccc4F)n2)OC[C@]3(C)C(N)=O)cc2cn(C3CC3)nc12 [Example 147] | < 500 | < 200 |
| COc1cc(C(=O)NC[C@@](O)(c2ccccc2)c2cc3c(c(-c4cc(Cl)c(F)cc4F)n2)OC[C@]3(C)C(N)=O)cc2sc(N)nc12 [Example 157] | < 500 | < 200 |
| COc1cc(C(=O)NC[C@@](O)(c2ccccc2)c2cc3c(c(-c4cc(Cl)c(F)cc4F)n2)OC[C@]3(C)C(N)=O)cc2cn(C3(F)CC3)nc12 [Example 158] | < 500 | < 200 |
| COc1cccc([C@](O)(CNC(=O)c2cc(OC)c3nn(C4CC4)cc3c2)c2cc3c(c(-c4cc(Cl)c(F)cc4F)n2)OC[C@]3(C)C(N)=O)c1 [Example 160] | < 500 | < 200 |
| COc1ccc([C@](O)(CNC(=O)c2cc(OC)c3nn(C4CC4)cc3c2)c2cc3c(c(-c4cc(Cl)c(F)cc4F)n2)OC[C@]3(C)C(N)=O)cc1 [Example 165] | < 500 | < 200 |
| COc1ccc([C@](O)(CNC(=O)c2cc(OC)c3nn(C4(F)CC4)cc3c2)c2cc3c(c(-c4cc(Cl)c(F)cc4F)n2)OC[C@]3(C)C(N)=O)cc1 [Example 166] | < 500 | < 200 |
| COc1cc(C(=O)NC[C@@](O)(c2ccccc2)c2cc3c(c(-c4cc(F)c(F)cc4F)n2)OC[C@]3(C)C(N)=O)cc2cn(C3(F)CC3)nc12 [Example 170] | < 500 | < 200 |
| COc1cc(C(=O)NC[C@@](O)(c2ccccc2)c2cc3c(c(-c4cc(F)c(F)cc4F)n2)OC[C@]3(C)C(N)=O)cc2cn(C3CC3)nc12 [Example 171] | < 500 | < 200 |
| COc1cc(C(=O)NC[C@@](O)(c2ccccc2)c2cc3c(c(-c4cc(F)c(F)cc4F)n2)OC[C@]3(C)C(N)=O)cc2cn(C(F)F)nc12 [Example 172] | < 500 | < 200 |
| COc1cc(C(=O)NC[C@@](O)(c2ccsc2)c2cc3c(c(-c4cc(F)c(F)cc4F)n2)OC[C@]3(C)C(N)=O)cc2cn(C3(F)CC3)nc12 [Example 179] | < 500 | < 200 |
| Cc1cnc2c(OC3CC3)cc(C(=O)NC[C@@](O)(c3ccccc3)c3cc4c(c(-c5cc(Cl)c(F)cc5F)n3)OC[C@]4(C)C(N)=O)cc2c1 [Example 182] | < 500 | < 200 |
| Cc1cnc2c(OC(F)F)cc(C(=O)NC[C@@](O)(c3ccccc3)c3cc4c(c(-c5cc(Cl)c(F)cc5F)n3)OC[C@]4(C)C(N)=O)cc2c1 [Example 183] | < 500 | < 200 |
| COc1cc(C(=O)NC[C@@](O)(c2ccccc2)c2cc3c(c(-c4cc(Cl)c(F)cc4F)n2)OC[C@]3(C)C(N)=O)cc2cc(Br)cnc12 [Example 185] | < 500 | < 200 |
| COc1cc(C(=O)NC[C@@](O)(c2ccccc2)c2cc3c(c(-c4cc(Cl)c(F)cc4F)n2)OC[C@]3(C)C(N)=O)cc2cc(C(F)F)nnc12 [Example 186] | > 500 | < 200 |
| COc1cc(C(=O)NC[C@@](O)(c2ccccc2)c2cc3c(c(-c4cc(Cl)c(F)cc4F)n2)OC[C@]3(C)C(N)=O)cc2cc(Cl)cnc12 [Example 187] | < 500 | < 200 |
| COc1cc(C(=O)NC[C@@](O)(c2ccccc2)c2cc3c(c(-c4ccc(F)c(F)c4Cl)n2)OC[C@]3(C)C(N)=O)cc2cn(C(F)F)nc12 [Example 213] | < 500 | < 200 |
| COc1cc(C(=O)NC[C@@](O)(c2ccccc2)c2cc3c(c(-c4ccc(F)c(Cl)c4Cl)n2)OC[C@]3(C)C(N)=O)cc2cn(C(F)F)nc12 [Example 258] | < 500 | < 200 |
| COc1cc(C(=O)NC[C@@](O)(c2ccccc2)c2cc3c(c(-c4ccc(F)c(Cl)c4Cl)n2)OC[C@]3(C)C(N)=O)cc2cn(C3(F)CC3)nc12 [Example 259] | < 500 | < 200 |
| COc1cc(C(=O)NC[C@@](O)(c2ccccc2)c2cc3c(c(-c4cccc(Cl)c4Cl)n2)OC[C@]3(C)C(N)=O)cc2cn(C3CC3)nc12 [Example 260] | < 500 | < 200 |

Next, values leading:

| EC50 [1] [nM] | EC50 [2] [nM] | Compound |
| --- | --- | --- |
| < 500 | < 200 | COc1cc(C(=O)NC[C@](O)(c2cc3c(c(-c4ccc(F)c(F)c4C)n2)OC[C@]3(C)C(N)=O)C2CC2)cc2cn(C3CC3)nc12 [Example 70] |
| < 500 | < 200 | COc1cc(C(=O)NC[C@](O)(c2cc3c(c(-c4cc(Cl)c(F)cc4F)n2)OC[C@]3(C)C(N)=O)C2CC2)cn2cc(C3CC3)nc12 [Example 77] |
| < 500 | < 200 | COc1cc(C(=O)NC[C@@](O)(c2ccccc2)c2cc3c(c(-c4cc(Cl)c(F)cc4F)n2)OC[C@]3(C)C(N)=O)cc2oc(C3CC3)nc12 [Example 85] |
| < 500 | < 200 | C[C@]1(C(N)=O)COc2c1cc([C@@](O)(CNC(=O)c1ccc3nc(C4CC4)oc3c1)c1ccccc1)nc2-c1cc(Cl)c(F)cc1F [Example 88] |
| < 500 | < 200 | COc1cc(C(=O)NC[C@@](O)(c2ccccc2)c2cc3c(c(-c4cc(Cl)c(F)cc4F)n2)OC[C@]3(C)C(N)=O)cc2cc(C)nnc12 [Example 89] |
| < 500 | < 200 | COc1cc(C(=O)NC[C@@](O)(c2ccccc2)c2cc3c(c(-c4cc(Cl)c(F)cc4F)n2)OC[C@]3(C)C(N)=O)cc2cc(C3CC3)nnc12 [Example 90] |
| < 500 | < 200 | COc1cc(C(=O)NC[C@@](O)(c2cccnc2)c2cc3c(c(-c4cc(Cl)c(F)cc4F)n2)OC[C@]3(C)C(N)=O)cc2cn(C3CC3)nc12 [Example 131] |
| < 500 | < 200 | COc1cc(C(=O)NC[C@@](O)(c2cccc(F)c2)c2cc3c(c(-c4cc(Cl)c(F)cc4F)n2)OC[C@]3(C)C(N)=O)cc2cn(C3CC3)nc12 [Example 132] |
| < 500 | < 200 | COc1cc(C(=O)NC[C@@](O)(c2cccc(F)c2)c2cc3c(c(-c4cc(Cl)c(F)cc4F)n2)OC[C@]3(C)C(N)=O)cc2cc(C3CC3)nn12 [Example 133] |
| < 500 | < 200 | [2H]C([2H])([2H])NC(=O)[C@@]1(C)COc2c1cc([C@@](O)(CNC(=O)c1cc(OC)c3nn(C4CC4)cc3c1)c1ccccc1)nc2-c1cc(Cl)c(F)cc1F [Example 140] |
| < 500 | < 200 | COc1cc(C(=O)NC[C@@](O)(c2ccccc2)c2cc3c(c(-c4cc(Cl)ccc4F)n2)OC[C@]3(C)C(N)=O)cc2cn(C3CC3)nc12 [Example 144] |

Reference: patent US20240368174A1, “Antiviral Heterocyclic Compounds” (Enanta Pharmaceuticals, Inc., priority 2023, published 2024)
